Reference: patent US7825068B2, “Heterocyclylethylcarboxamide derivatives” (Bayer Cropscience AG, priority 2005, dated 2010)

Tests used:
[1] = test system: Alternaria brassicae; assay: In vivo test on Alternaria brassicae (preventive spray on radish plants); conditions: for efficacy against Alternaria brassicae: 330 ppm, comparison compounds of WO 2004/074280
Method: The active ingredient tested is prepared by potter homogenisation in a concentrated suspension type formulation at 100 g/l. […] Radish plants (Pernot variety) in starter cups, sown on a 50/50 peat soil-pozzolana substrate and grown at 18-20° C., are treated at the cotyledon stage by spraying with the aqueous suspension described above. Plants, used as controls, are treated with an aqueous solution not containing the active material. After 24 hours, the plants are contaminated by spraying them with an aqueous suspension of Alternaria brassicae spores (40,000 spores per cm^3). The spores are collected from a 12-13-day-old culture. The contaminated radish plants are incubated for 6-7 days at about 18° C., under a humid atmosphere. Grading is carried out 6 to 7 days after the contamination, in comparison with the control plants.

[2] = test system: Pyrenophora teres; assay: In vivo test on Pyrenophora teres (preventive spray on barley plants); conditions: 330 ppm; comparison compounds of WO 2004/074280
Method: The active ingredient tested is prepared by potter homogenisation in a concentrated suspension type formulation at 100 g/l. […] Barley plants (Express variety) in starter cups, sown on a 50/50 peat soil-pozzolana substrate and grown at 12° C., are treated at the 1-leaf stage (10 cm tall) by spraying with the aqueous suspension described above. Plants, used as controls, are treated with an aqueous solution not containing the active material. After 24 hours, the plants are contaminated by spraying them with an aqueous suspension of Pyrenophora teres spores (12,000 spores per ml). The spores are collected from a 12-day-old culture. The contaminated barley plants are incubated for 24 hours at about 20° C. and at 100% relative humidity, and then for 12 days at 80% relative humidity. Grading is carried out 12 days after the contamination, in comparison with the control plants.

SMILES	efficacy against Alternaria brassicae [1]	efficacy against Pyrenophora teres [2]	protection (good (at least 50%) to total) ([1]; dose of 110 ppm, radish plants (Pernot variety), grading 6 to 7 days after contamination, in comparison with control plants)
CC1=C(C(=O)NCCc2ncc(Cl)cc2F)SCCO1 [Compound V9, N-[2-(5-chloro-3-fluoropyridin-2-yl)ethyl]-2-methyl-5,6-dihydro-1,4-oxathiine-3-carboxamide]	no efficacy	no efficacy	
Cc1cc(C(=O)NCCc2cn(C)nc2C(F)(F)F)c(C(F)(F)F)o1 [Compound J-3]			at least 50%
CC1=C(C(=O)NCCc2nc(Cl)ccc2Cl)SCCO1 [Compound V10, N-[2-(3,6-dichloropyridin-2-yl)ethyl]-2-methyl-5,6-dihydro-1,4-oxathiine-3-carboxamide]	no efficacy	no efficacy	
Cc1nc(-c2ccccc2)sc1C(=O)NCCc1ncc(C(F)(F)F)cc1Cl [Compound H3, N-{2-[3-chloro-5-(trifluoromethyl)pyridin-2-yl]ethyl}-4-methyl-2-phenyl-1,3-thiazole-5-carboxamide]	no efficacy	no efficacy	
O=C(NCCc1ncc(C(F)(F)F)cc1Cl)C1CCN(C(=O)OCc2ccccc2)CC1 [Compound T1, benzyl 4-[({2-[3-chloro-5-(trifluoromethyl)pyridin-2-yl]ethyl}amino)carbonyl]piperidine-1-carboxylate]	no efficacy	no efficacy	
Cc1c(C(=O)NCCc2ncc(C(F)(F)F)cc2Cl)cnn1-c1ccccc1 [Compound J9, N-{2-[3-chloro-5-(trifluoromethyl)pyridin-2-yl]ethyl}-5-methyl-1-phenyl-1H-pyrazole-4-carboxamide]	no efficacy	no efficacy	
CSc1sc(C(=O)NCCc2ncc(C(F)(F)F)cc2Cl)c(I)c1S(=O)(=O)C(C)C [Compound C10, N-{2-[3-chloro-5-(trifluoromethyl)pyridin-2-yl]ethyl}-3-iodo-4-(isopropylsulfonyl)-5-(methylthio)thiophene-2-carboxamide]	no efficacy	no efficacy	
Cc1onc(-c2ccccc2)c1C(=O)NCCc1ncc(C(F)(F)F)cc1Cl [Compound M3, N-{2-[3-chloro-5-(trifluoromethyl)pyridin-2-yl]ethyl}-5-methyl-3-phenylisoxazole-4-carboxamide]	no efficacy	no efficacy	
O=C(NCCc1ccc(Cl)cn1)c1cccnc1Cl [Compound R32, 2-chloro-N-[2-(5-chloropyridin-2-yl)ethyl]nicotinamide]	no efficacy	no efficacy	
Cc1cc(C(=O)NCCc2nc(F)c(F)cc2F)c(C)o1 [Compound B17, 2,5-dimethyl-N-[2-(3,5,6-trifluoropyridin-2-yl)ethyl]-3-furamide]	no efficacy	no efficacy	
Cn1cccc1C(=O)NCCc1ncc(C(F)(F)F)cc1Cl [Compound F1, N-{2-[3-chloro-5-(trifluoromethyl)pyridin-2-yl]ethyl}-1-methyl-1H-pyrrole-2-carboxamide]	no efficacy	no efficacy	
